Laboratory results from patent US20230399312A1, “SUBSTITUTED PYRIMIDINES AND METHODS OF USE” (THERAVANCE BIOPHARMA R&D IP, LLC, priority 2020, published 2023).

Tests used:
[1] = target: T1, recombinant human ALK5 (TGF-βR1) protein (Homo sapiens, UniProt P36897); assay: Biochemical ALK5 (TGF-βR1) assay to measure pKi (LANCE Ultra ULight kinase assay); conditions: apparent pKi, converted from pIC50 by Cheng-Prusoff
T1 construct: purchased Life Technologies PR9075A
T1 sequence (P36897 34-503): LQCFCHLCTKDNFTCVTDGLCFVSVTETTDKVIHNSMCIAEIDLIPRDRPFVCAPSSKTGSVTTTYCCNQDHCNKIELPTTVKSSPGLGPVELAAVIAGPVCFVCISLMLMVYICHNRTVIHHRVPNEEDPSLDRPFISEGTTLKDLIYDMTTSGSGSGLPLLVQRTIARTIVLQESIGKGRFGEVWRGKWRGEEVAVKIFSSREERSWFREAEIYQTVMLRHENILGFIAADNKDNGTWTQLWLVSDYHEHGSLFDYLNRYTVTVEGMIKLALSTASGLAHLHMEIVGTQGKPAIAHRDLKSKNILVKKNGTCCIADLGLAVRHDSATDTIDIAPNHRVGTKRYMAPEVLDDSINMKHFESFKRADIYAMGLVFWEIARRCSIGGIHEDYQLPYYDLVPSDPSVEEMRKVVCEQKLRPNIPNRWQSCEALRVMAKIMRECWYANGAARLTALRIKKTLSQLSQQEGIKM
Outline: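 Read-out was LANCE Ultra TR-FRET with a europium anti-phospho-Topo IIα Thr1342 antibody after EDTA quench. Kinase reaction ran 60 min at 37 °C with ATP added from a 125 μM 5× stock, after 60 min compound–enzyme equilibration at room temperature. Values are pKi from Cheng-Prusoff conversion of fitted pIC50.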

[2] = system: TGF-β-stimulated SMAD3 phosphorylation in BEAS-2B cells; assay: Cellular ALK5 potency assay, inhibition of TGF-β stimulated pSMAD3 formation in BEAS-2B cells; type: cell-based; conditions: Homo sapiens, pSMAD3, TGF-β 10 ng/mL, read-out: BEAS2B pIC50 (converted)
Outline: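 Read-out is AlphaLISA detection of phospho-SMAD3 in lysates of BEAS-2B human lung epithelial cells. Cells are exposed to compound for 1 hour, then to 10 ng/mL TGF-β (final) for 30 minutes. Values are pIC50 from concentration–response curves.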

SMILES	Ki [1] [nM]	IC50 [2] [nM]
Cc1cccc(-c2nccc(Nc3ccnc(Nc4ncc(C(=O)OC5CNC5)s4)n3)n2)n1 [Compound 325, azetidin-3-yl 2-[[4-[[2-(6-methyl-2-pyridyl)pyrimidin-4-yl]amino]pyrimidin-2-yl]amino]thiazole-5-carboxylate]	3.98 to 31.6	25.1 to 158
CN1CCN(C2CCN(c3ccc(Nc4nccc(Nc5ccnc(-c6cc(Cl)c(F)cc6F)n5)n4)cc3)CC2)CC1 [Compound 326, N4-[2-(5-chloro-2,4-difluoro-phenyl)pyrimidin-4-yl]-N2-[4-[4-(4-methylpiperazin-1-yl)-1-piperidyl]phenyl]pyrimidine-2,4-diamine]	0.0398 to 0.316	200 to 1260
Cc1cccc(-c2nccc(Nc3ccnc(Nc4csc(C(=O)NC5CNC5)c4)n3)n2)n1 [Compound 327, N-(azetidin-3-yl)-4-[[4-[[2-(6-methyl-2-pyridyl)pyrimidin-4-yl]amino]pyrimidin-2-yl]amino]thiophene-2-carboxamide]	≤ 0.0316	25.1 to 158
Cc1cccc(-c2nccc(Nc3ccnc(Nc4ccc(-c5cn(C)nn5)cc4)n3)n2)n1 [Compound 328, N4-[2-(6-methyl-2-pyridyl)pyrimidin-4-yl]-N2-[4-(1-methyltriazol-4-yl)phenyl]pyrimidine-2,4-diamine]	0.0398 to 0.316	≤ 20
Cc1cccc(-c2nccc(Nc3ccnc(Nc4nc(CN5CCN[C@@H](CO)C5)cs4)n3)n2)n1 [Compound 329, [(2R)-4-[[2-[[4-[[2-(6-methyl-2-pyridyl)pyrimidin-4-yl]amino]pyrimidin-2-yl]amino]thiazol-4-yl]methyl]piperazin-2-yl]methanol]	0.398 to 3.16	25.1 to 158
Cc1cccc(-c2nccc(Nc3ccnc(Nc4ccc(NC(=O)N5CCN(C)CC5)cc4)n3)n2)n1 [Compound 330, 4-methyl-N-[4-[[4-[[2-(6-methyl-2-pyridyl)pyrimidin-4-yl]amino]pyrimidin-2-yl]amino]phenyl]piperazine-1-carboxamide]	0.0398 to 0.316	25.1 to 158
Cc1cccc(-c2nccc(Nc3ccnc(Nc4ccc(C5=CCNC5)cc4)n3)n2)n1 [Compound 331, N2-[4-(2,5-dihydro-1H-pyrrol-3-yl)phenyl]-N4-[2-(6-methyl-2-pyridyl)pyrimidin-4-yl]pyrimidine-2,4-diamine]	≤ 0.0316	≤ 20
Cc1cccc(-c2nccc(Nc3ccnc(Nc4cccc(CN5CC6CCC(C5)N6)c4)n3)n2)n1 [Compound 332, N2-[3-(3,8-diazabicyclo[3.2.1]octan-3-ylmethyl)phenyl]-N4-[2-(6-methyl-2-pyridyl)pyrimidin-4-yl]pyrimidine-2,4-diamine]	0.0398 to 0.316	25.1 to 158
Cc1cccc(-c2nccc(Nc3ccnc(Nc4ccc(-c5cn(Cc6ccccc6)nn5)cc4)n3)n2)n1 [Compound 333, N2-[4-(1-benzyltriazol-4-yl)phenyl]-N4-[2-(6-methyl-2-pyridyl)pyrimidin-4-yl]pyrimidine-2,4-diamine]	3.98 to 31.6	25.1 to 158
CNC(=O)[C@H]1CN(c2ccc(Nc3nccc(Nc4ccnc(-c5cccc(C)n5)n4)n3)cc2)CCN1 [Compound 334, (2R)-N-methyl-4-[4-[[4-[[2-(6-methyl-2-pyridyl)pyrimidin-4-yl]amino]pyrimidin-2-yl]amino]phenyl]piperazine-2-carboxamide]	0.0398 to 0.316	25.1 to 158
COc1cc(Nc2nccc(Nc3ccnc(-c4cccc(C)n4)n3)n2)ccc1CN1C[C@@H](C)N[C@@H](C)C1 [Compound 335, N2-[3-methoxy-4-[[rac-(3S,5R)-3,5-dimethylpiperazin-1-yl]methyl]phenyl]-N4-[2-(6-methyl-2-pyridyl)pyrimidin-4-yl]pyrimidine-2,4-diamine]	0.0398 to 0.316	25.1 to 158
Cc1cccc(-c2nccc(Nc3ccnc(Nc4csc(C(=O)N[C@@H]5CCNC5)c4)n3)n2)n1 [Compound 336, 4-[[4-[[2-(6-methyl-2-pyridyl)pyrimidin-4-yl]amino]pyrimidin-2-yl]amino]-N-[(3R)-pyrrolidin-3-yl]thiophene-2-carboxamide]	≤ 0.0316	25.1 to 158
